Assay [1] relates to KM12 wild type colon carcinoma cell line harboring the TPM3-NTRK1 fusion protein. Nature of the assay: NTRK wild type cellular assay (KM12, CellTiter-Glo). Format: cell-based. The following applies: KM12 wild type cells, 72 hr. As for the experimental part:
(§1) NTRK Wild Type and G595R Mutant Cellular Assays Protocol
(§2) KM12 wild type colon carcinoma cell line harboring the TPM3-NTRK1 fusion protein was obtained from the National Cancer Institute (NCI). This line has been previously shown to be dependent upon the NTRK activity derived from the NTRK fusion protein for growth and survival. […] Cells were first plated in 384-well plates at 1000 cells/well in complete media (10% FBS and 1% pen/strep) and incubated overnight at 37° C. Cells were then dosed with test articles at varying concentrations using the Bravo liquid handling system. Concentrations ranged from 25 uM down to […] (4-fold dilutions, 10 concentrations total). Each compound was run in duplicate per plate. DMSO and staurosporine (25 uM) were included on each plate as negative and positive controls for growth inhibition. 72 hr after dosing, assay plates were developed using CellTiter-Glo (Promega) and resultant luminescence was read on the Envision plate reader. IC50 determinations were calculated using a 4-parameter curve fitting algorithm

Assay [2] has as its system KM12 Cliff (G595R) cell line. Put plainly: NTRK G595R mutant cellular assay (KM12 Cliff, CellTiter-Glo). In kind it is cell-based. The following applies: KM12 Cliff (G595R) cells, 72 hr. As for the experimental part:
as §1, §2

Consider `N#Cc1cnn2cc(F)c(N3C[C@@H](F)C[C@@H]3c3cc(F)cc(C(N)=O)c3)nc12` [Compound 15], for which the IC50 in assay [1] and in assay [2] was 10 to 100 nM each time.
